Data as given in US20120101093A1, “SUBSTITUTED IMIDAZO[1,2-A]PYRIDINE DERIVATIVES, PHARMACEUTICAL COMPOSITIONS, AND METHODS OF USE AS BETA-SECRETASE INHIBITORS” (HIGH POINT PHARMACEUTICALS, LLC, priority 2009, published 2012).
Counter-ions that a name gives are not always drawn.

How the values were obtained:
[1] = molecular target: T1, BACE-1 enzyme (Homo sapiens, UniProt P56817); assay: BACE Fluorescence Resonance Energy Transfer (FRET) Assay; type: biochemical; settings: pH 4-4.5, 30 min pre-incubation, about 1.5 hours reaction
T1 construct: purchased R & D Systems 931AS
T1 sequence (P56817 46-457 limits assumed): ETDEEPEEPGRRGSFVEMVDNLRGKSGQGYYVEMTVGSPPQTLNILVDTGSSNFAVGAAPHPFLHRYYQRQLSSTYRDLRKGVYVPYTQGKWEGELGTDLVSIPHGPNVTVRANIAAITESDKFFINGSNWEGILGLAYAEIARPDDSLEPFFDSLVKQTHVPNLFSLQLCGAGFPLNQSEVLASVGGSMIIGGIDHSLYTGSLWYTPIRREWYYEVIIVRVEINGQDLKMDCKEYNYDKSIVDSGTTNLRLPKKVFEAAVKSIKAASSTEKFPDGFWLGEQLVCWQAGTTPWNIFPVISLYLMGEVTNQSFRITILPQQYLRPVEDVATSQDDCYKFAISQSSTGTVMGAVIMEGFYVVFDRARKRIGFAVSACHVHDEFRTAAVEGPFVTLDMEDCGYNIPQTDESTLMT
Summary of the method: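 BACE-1 enzyme pre-incubated 30 min with compound in 7.5% DMSO in 50 mM sodium acetate pH 4-4.5, 0.01% CHAPS, 0.0125% Triton X-100, 0.006% EDTA. Rhodamine/quencher peptide substrate added; ~1.5 h at room temperature, fluorescence read at 540/585 nm. IC50 or percent inhibition at one concentration.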

[2] = system: Aβ1-40 secreted from HEK293 cells stably expressing wildtype human APP695 protein (HEK-APPwt cells); assay: Aβ Cell Based Assay (Aβ1-40 secretion, ELISA); settings: Homo sapiens, HEK293, 6 h, 6 hours incubation, reduction of Aβ1-40 secretion
Method: Aβ Cell Based Assay Procedure
In the following assay, the proteolytic activity of BACE in cells exposed to varying concentrations of a compound of interest is measured by observing the amount of Aβ1-40 secreted from HEK293 cells (Human Embryonic Kidney epithelial cell line) stably expressing wildtype human APP695 protein (HEK-APPwt cells).
HEK-APPwt cells were grown in high glucose DMEM (Dulbecco's Modified Eagles Medium SIGMA Cat.# D5796) supplemented with 25 mM HEPES (4-(2-hydroxyethyl)-1-piperazineethanesulfonic acid) (pH 7.4) (Invitrogen Cat.# 15630-114), 0.1 mM NEAA (Non-essential Amino Acids) (BioWhittaker Cat. #13-114E), 10% fetal bovine serum (SIGMA Cat. #F4135) and 250 μg/mL hygromycin (Invitrogen Cat. #10687-010) in T-225 flasks at 37° C. with 5% CO2 and humidity control.
Test compounds were initially prepared in DMSO and diluted with DMEM media containing 2% FBS (Fetal bovine serum). Ten standard compound solutions were prepared having a range of concentrations. The standard compound solutions were used to determine the EC50 of the test compound. The range of concentrations chosen may depend on the compound's predicted potency.
To prepare the cells for the assay, a flask containing HEK-APPwt cells were trypsinized briefly (1 mL trypsin), and once the cells detached, 4 mL of 10% FBS-DMEM was added to the flask. The detached cells were centrifuged at 900 rpm for 5 min to form a pellet.
The HEK-APPwt cell pellet was re-suspended with 10 mL DMEM media containing 2% FBS. 80 μL of the cell suspension was added to each well of a 96-well cell culture plate to give 100×10^4cells/ml. 10 μL of a standard compound solution was added to each well of the 96-well cell culture plate followed by 10 μL of Alamar blue solution. The cells were incubated at 37° C. in a 5% CO2 incubator for 6 hours.
At the end of the incubation, the plates were removed from incubator, and the supernatant was collected. A≈1-40 concentration in the medium was measured by using a commercial Aβ1-X ELISA kit (IBL, Japan Cat. #27729). Briefly, the ELISA plates were coated with an anti-human AO (N)(82E1) mouse IgG monoclonal antibody. A horseradish peroxidase conjugated anti-human Aβ11-28 mouse IgG monoclonal antibody was used for detection. The cell culture supernatant was diluted with EIA buffer +protease inhibitors (kit buffer containing protease inhibitors (1 mL PI/30 mL buffer)). A 100 μL aliquot of the diluted supernatant was added to each well of the ELISA plate and incubated for 6 hrs at 4° C. The ELISA plate was washed 8 times with phosphate buffered saline (PBS) containing 0.05% Tween 20.
A 100 μL of detection antibody was then added and incubated for 1 hour at 4° C. The plate was washed 8 times with PBS buffer containing 0.05% Tween 20 followed by addition of 100 μL of the chromogen tetramethylbenzidine (TMB). The plate was incubated in the dark at room temperature for about 30 min and a stop solution (1N H2SO4) was added.
The intensity of the color developed was measured at 450 nm. The optical density at 450 nm (OD450) is proportional to the concentration of human Aβ1-40 secreted by the cell. As a reference, N-[N-(3,5-difluorophenacetyl-L-alanyl)]-S-phenylglycine t-butyl ester (DAPT, a γ-secretase inhibitor) was used to indicate 100% inhibition of BACE activity. Thus, the assay measures the ability of a compound of interest to reduce Aβ1-40 secretion. For select compounds, compound potency is reported in Table 3 as the EC50 by calculating the percent inhibition at all concentration levels and the data were fit with non-linear curve fitting algorithm using GraphPad Prism.

Cc1cccc2nc(C(=O)Nc3nc4cc(-c5cccc(C(F)(F)F)c5)ccc4[nH]3)cn12 [Example 1, 5-Methyl-imidazo[1,2-a]pyridine-2-carboxylic acid[5-(3-trifluoromethyl-phenyl)-1H-benzoimidazol-2-yl]-amide]
IC50 [1]: 0.32 µM | EC50 [2]: 0.53 µM

O=C(Nc1nc2cc(-c3cccc(C(F)(F)F)c3)ccc2[nH]1)c1cn2c(OC3CCNCC3)cccc2n1 [Example 2, 5-(Piperidin-4-yloxy)-imidazo[1,2-a]pyridine-2-carboxylic acid[5-(3-trifluoromethyl-phenyl)-1H-benzoimidazol-2-yl]-amide trihydrochloride]
IC50 [1]: 0.98 µM | EC50 [2]: 6.4 µM

CN1CCC(Oc2cccc3nc(C(=O)Nc4nc5cc(-c6cccc(C(F)(F)F)c6)ccc5[nH]4)cn23)CC1 [Example 3, 5-(1-Methyl-piperidin-4-yloxy)-imidazo[1,2-a]pyridine-2-carboxylic acid[5-(3-trifluoromethyl-phenyl)-1H-benzoimidazol-2-yl]-amide]
IC50 [1]: 1.15 µM | EC50 [2]: 4.02 µM

CN1CCN(Cc2cccc3nc(C(=O)Nc4nc5cc(-c6cccc(C(F)(F)F)c6)ccc5[nH]4)cn23)CC1 [Example 10, 5-(4-Methyl-piperazin-1-ylmethyl)-imidazo[1,2-a]pyridine-2-carboxylic acid [5-(3-trifluoromethyl-phenyl)-1H-benzoimidazol-2-yl]-amide]
IC50 [1]: 0.3 µM | EC50 [2]: 2.53 µM

Cc1cccc2nc(C(=O)Nc3nc4ccc(-c5cccc(C(F)(F)F)c5)cc4n3C)cn12 [Example 11, 5-Methyl-imidazo[1,2-a]pyridine-2-carboxylic acid [1-methyl-6-(3-trifluoromethyl-phenyl)-1H-benzoimidazol-2-yl]-amide]
IC50 [1]: 0.55 µM | EC50 [2]: 8.83 µM

Cc1cccc2nc(C(=O)Nc3nc4cc(OCc5ccccc5)ccc4[nH]3)cn12 [Example 12, 5-Methyl-imidazo[1,2-a]pyridine-2-carboxylic acid (5-benzyloxy-1H-benzoimidazol-2-yl)-amide]
IC50 [1]: 0.2 µM | EC50 [2]: 2.01 µM

Cc1cccc2nc(C(=O)Nc3nc4cc(OCc5ccc(C(F)(F)F)cc5)ccc4[nH]3)cn12 [Example 18, 5-Methyl-imidazo[1,2-a]pyridine-2-carboxylic acid [5-(4-trifluoromethyl-benzyloxy)-1H-benzoimidazol-2-yl]-amide]
IC50 [1]: 0.16 µM | EC50 [2]: 0.42 µM

Cc1cccc2nc(C(=O)Nc3nc4cc(-c5ccc(C(F)(F)F)cc5)ccc4[nH]3)cn12 [Example 23, 5-Methyl-imidazo[1,2-a]pyridine-2-carboxylic acid [5-(4-trifluoromethyl-phenyl)-1H-benzoimidazol-2-yl]-amide]
IC50 [1]: 0.27 µM | EC50 [2]: 0.66 µM

Cc1cccc2nc(C(=O)Nc3nc4cc(OCc5cccc(C(F)(F)F)c5)ccc4[nH]3)cn12 [Example 26, 5-Methyl-imidazo[1,2-a]pyridine-2-carboxylic acid [5-(3-trifluoromethyl-benzyloxy)-1H-benzoimidazol-2-yl]-amide]
IC50 [1]: 0.42 µM | EC50 [2]: 1.21 µM

Cc1cccc2nc(C(=O)Nc3nc4cc(-c5cccc(Cl)c5)ccc4[nH]3)cn12 [Example 27, 5-Methyl-imidazo[1,2-a]pyridine-2-carboxylic acid [5-(3-chloro-phenyl)-1H-benzoimidazol-2-yl]-amide]
IC50 [1]: 0.5 µM | EC50 [2]: 1.45 µM

CO[C@H]1CCN(c2ccc3nc(C(=O)Nc4nc5cc(-c6cccc(Cl)c6)ccc5[nH]4)cn3c2)C1 [Example 233, 6-((S)-3-Methoxy-pyrrolidin-1-yl)-imidazo[1,2-a]pyridine-2-carboxylic acid [5-(3-chloro-phenyl)-1H-benzoimidazol-2-yl]-amide]
IC50 [1]: 0.41 µM

O=C(Nc1nc2cc(-c3cccc(Cl)c3)ccc2[nH]1)c1cn2cc(OCCOC3CCCCO3)ccc2n1 (stereo not shown) [Example 234, 6-[2-(Tetrahydro-pyran-2-yloxy)-ethoxy]-imidazo[1,2-a]pyridine-2-carboxylic acid [5-(3-chloro-phenyl)-1H-benzoimidazol-2-yl]-amide]
IC50 [1]: 0.35 µM

Cc1c(N2CC[C@H](O)C2)ccc2nc(C(=O)Nc3nc4cc(-c5cc(F)cc(Cl)c5)ccc4[nH]3)cn12 [Example 235, 6-((S)-3-Hydroxy-pyrrolidin-1-yl)-5-methyl-imidazo[1,2-a]pyridine-2-carboxylic acid [5-(3-chloro-5-fluoro-phenyl)-1H-benzoimidazol-2-yl]-amide]
IC50 [1]: 0.69 µM

CO[C@@H]1CCN(c2ccc3nc(C(=O)Nc4nc5cc(-c6cc(F)cc(Cl)c6)ccc5[nH]4)cn3c2C)C1 [Example 236, 6-((R)-3-Methoxy-pyrrolidin-1-yl)-5-methyl-imidazo[1,2-a]pyridine-2-carboxylic acid [5-(3-chloro-5-fluoro-phenyl)-1H-benzoimidazol-2-yl]-amide]
IC50 [1]: 0.25 µM

CO[C@H]1CCN(c2ccc3nc(C(=O)Nc4nc5cc(-c6cc(F)cc(Cl)c6)ccc5[nH]4)cn3c2C)C1 [Example 237, 6-((S)-3-Methoxy-pyrrolidin-1-yl)-5-methyl-imidazo[1,2-a]pyridine-2-carboxylic acid [5-(3-chloro-5-fluoro-phenyl)-1H-benzoimidazol-2-yl]-amide]
IC50 [1]: 0.23 µM

Cc1c(C#CCO)ccc2nc(C(=O)Nc3nc4cc(-c5cccc(C(F)(F)F)c5)ccc4[nH]3)cn12 [Example 238, 6-(3-Hydroxy-prop-1-ynyl)-5-methyl-imidazo[1,2-a]pyridine-2-carboxylic acid [5-(3-trifluoromethyl-phenyl)-1H-benzoimidazol-2-yl]-amide]
IC50 [1]: 0.22 µM

COCCn1c(NC(=O)c2cn3c(C)cccc3n2)nc2ccc(-c3cccc(C(F)(F)F)c3)cc21 [Example 239, 5-Methyl-imidazo[1,2-a]pyridine-2-carboxylic acid [1-(2-methoxy-ethyl)-6-(3-trifluoromethyl-phenyl)-1H-benzoimidazol-2-yl]-amide]
IC50 [1]: 0.7 µM

Cc1cccn2cc(C(=O)Nc3nc4cc(-c5cccc(C(F)(F)F)c5)ccc4n3C)nc12 [Example 241, 8-Methyl-imidazo[1,2-a]pyridine-2-carboxylic acid [1-methyl-5-(3-trifluoromethyl-phenyl)-1H-benzoimidazol-2-yl]-amide]
IC50 [1]: 1.5 µM

COCCn1c(NC(=O)c2cn3c(C)cccc3n2)nc2cc(-c3ccc(Cl)c(C(F)(F)F)c3)ccc21 [Example 242, 5-Methyl-imidazo[1,2-a]pyridine-2-carboxylic acid [5-(4-chloro-3-trifluoromethyl-phenyl)-1-(2-methoxy-ethyl)-1H-benzoimidazol-2-yl]-amide]
IC50 [1]: 0.44 µM

Cc1cccc2nc(C(=O)Nc3nc4cc(-c5ccc(Cl)c(C(F)(F)F)c5)ccc4n3CCN3CCOCC3)cn12 [Example 243, 5-Methyl-imidazo[1,2-a]pyridine-2-carboxylic acid [5-(4-chloro-3-trifluoromethyl-phenyl)-1-(2-morpholin-4-yl-ethyl)-1H-benzoimidazol-2-yl]-amide]
IC50 [1]: 6.9 µM

O=C(O)c1ccn2cc(C(=O)Nc3nc4cc(-c5cc(F)cc(Cl)c5)ccc4[nH]3)nc2c1 [Example 244, 2-[5-(3-Chloro-5-fluoro-phenyl)-1H-benzoimidazol-2-ylcarbamoyl]-imidazo[1,2-a]pyridine-7-carboxylic acid]
IC50 [1]: 3.64 µM
